From ChEMBL document CHEMBL1914447, “Novel orally active antimalarial thiazoles” (J Med Chem, 2011)
Values after ≈ are worked out from the molar mass of the structure shown.

Assays:
Plasmodium berghei [1] = assay: Antimalarial activity against GFP-transfected Plasmodium berghei ANKA infected in NMRI mouse assessed as mean survival time at 30 mg/kg, po administered as single dose; type: functional
Plasmodium berghei [2] = assay: Antimalarial activity against GFP-transfected Plasmodium berghei ANKA infected in NMRI mouse assessed as mean survival time at 10 mg/kg, po administered as single dose; type: functional
Plasmodium berghei [3] = assay: Antimalarial activity against GFP-transfected Plasmodium berghei ANKA infected in NMRI mouse assessed as mean survival time at 50 mg/kg, po administered as quadruple dose regimen; type: functional
[4] = Apparent half life in Sprague-Dawley rat at 4.5 […], iv; type: ADME, organism-based; settings: in vivo, read-out: t1/2(app) (converted)
[5] = Total clearance in Sprague-Dawley rat plasma at 4.5 mg/kg, iv; type: ADME, organism-based; parameters: dose 4.5 mg/kg, route intravenous
[6] = Total clearance in Sprague-Dawley rat blood at 4.5 mg/kg, iv; type: ADME, organism-based; parameters: dose 4.5 mg/kg, route intravenous; settings: whole blood
[7] = Ratio of drug level in blood to plasma of Sprague-Dawley rat at 4.5 mg/kg, iv; type: ADME, organism-based; parameters: dose 4.5 mg/kg, route intravenous; settings: whole blood and plasma
[8] = Volume of distribution at steady state in Sprague-Dawley rat at 4.5 mg/kg, iv; type: ADME, organism-based; parameters: dose 4.5 mg/kg, route intravenous; settings: in vivo, read-out: Vdss
[9] = AUC (0 to infinity) in Sprague-Dawley rat plasma at 4.5 mg/kg, iv by LCMS analysis; type: ADME, organism-based; parameters: time infinity, dose 4.5 mg/kg, route intravenous
[10] = Apparent half life in Sprague-Dawley rat at 21.8 […], po; type: ADME, organism-based; settings: in vivo, read-out: t1/2(app) (converted)
[11] = Cmax in Sprague-Dawley rat plasma at 21.8 mg/kg, po by LCMS analysis; type: ADME, organism-based; parameters: dose 21.8 mg/kg, route oral
[12] = Tmax in Sprague-Dawley rat at 21.8 mg/kg, po by LCMS analysis; type: ADME, organism-based; parameters: dose 21.8 mg/kg, route oral; settings: in vivo
[13] = AUC (0 to infinity) in Sprague-Dawley rat plasma at 21.8 mg/kg, po by LCMS analysis; type: ADME, organism-based; parameters: time infinity, dose 21.8 mg/kg, route oral
[14] = Oral bioavailability in Sprague-Dawley rat at 21.8 mg/kg; type: ADME, organism-based; settings: in vivo
[15] = Plasma protein binding in human at 200 ng/mL; type: ADME, cell-free; settings: read-out: PPB (converted)
[16] = Plasma protein binding in rat at 200 ng/mL; type: ADME, cell-free; settings: read-out: PPB (converted)
[17] = Plasma protein binding in mouse at 200 ng/mL; type: ADME, cell-free; settings: read-out: PPB (converted)
Liver microsomes [18] = assay: Metabolic stability in human liver microsomes at 1 uM by LC-MS analysis; type: ADME, Microsome
Liver microsomes [19] = assay: Metabolic stability in rat liver microsomes at 1 uM by LC-MS analysis; type: ADME, Microsome
Liver = assay: Metabolic stability in mouse liver microsomes at 1 uM by LC-MS analysis; type: ADME, Microsome
Plasmodium berghei [20] = assay: Antimalarial activity against GFP-transfected Plasmodium berghei ANKA infected in po dosed NMRI mouse assessed as reduction in parasitemia administered as single dose after 72 hrs by flow cytometry; type: functional
Plasmodium berghei [21] = assay: Antimalarial activity against GFP-transfected Plasmodium berghei ANKA infected in NMRI mouse assessed as mean survival time at 100 mg/kg, po administered as single dose; type: functional
Plasmodium berghei [22] = assay: Antimalarial activity against GFP-transfected Plasmodium berghei ANKA infected in NMRI mouse assessed as mean survival time at 200 mg/kg, po administered as single dose after 72 hrs; type: functional
Plasmodium berghei [23] = assay: Antimalarial activity against GFP-transfected Plasmodium berghei ANKA infected in NMRI mouse assessed as reduction in parasitemia at 50 mg/kg, po administered as quadruple dose regimen after 4 days by flow cytometry; type: functional; parameters: scale not given: the % may be the effect or the level left
Plasmodium berghei [24] = assay: Antimalarial activity against GFP-transfected Plasmodium berghei ANKA infected in NMRI mouse assessed as reduction in parasitemia at 10 mg/kg, po administered as single dose after 72 hrs by flow cytometry; type: functional; parameters: scale not given: the % may be the effect or the level left
Plasmodium berghei [25] = assay: Antimalarial activity against GFP-transfected Plasmodium berghei ANKA infected in NMRI mouse assessed as reduction in parasitemia at 30 mg/kg, po administered as single dose after 72 hrs by flow cytometry; type: functional; parameters: scale not given: the % may be the effect or the level left
Plasmodium berghei [26] = assay: Antimalarial activity against GFP-transfected Plasmodium berghei ANKA infected in NMRI mouse assessed as reduction in parasitemia at 100 mg/kg, po administered as single dose after 72 hrs by flow cytometry; type: functional; parameters: scale not given: the % may be the effect or the level left
L6 = assay: Cytotoxicity against rat L6 cells assessed after 72 hrs by alamar blue staining; type: cell-based; settings: L6, 72 h
Plasmodium berghei [27] = assay: Antimalarial activity against GFP-transfected Plasmodium berghei ANKA infected in NMRI mouse assessed as reduction in parasitemia at 200 mg/kg, po administered as single dose after 72 hrs by flow cytometry; type: functional; parameters: scale not given: the % may be the effect or the level left
[28] = target: Voltage-gated inwardly rectifying potassium channel KCNH2 (Homo sapiens, UniProt Q12809); assay: Inhibition of human ERG expressed in Chinese hamster CHL cells by perforated patch clamp assay; type: cell-based
Sequence of Voltage-gated inwardly rectifying potassium channel KCNH2 (Q12809 whole entry): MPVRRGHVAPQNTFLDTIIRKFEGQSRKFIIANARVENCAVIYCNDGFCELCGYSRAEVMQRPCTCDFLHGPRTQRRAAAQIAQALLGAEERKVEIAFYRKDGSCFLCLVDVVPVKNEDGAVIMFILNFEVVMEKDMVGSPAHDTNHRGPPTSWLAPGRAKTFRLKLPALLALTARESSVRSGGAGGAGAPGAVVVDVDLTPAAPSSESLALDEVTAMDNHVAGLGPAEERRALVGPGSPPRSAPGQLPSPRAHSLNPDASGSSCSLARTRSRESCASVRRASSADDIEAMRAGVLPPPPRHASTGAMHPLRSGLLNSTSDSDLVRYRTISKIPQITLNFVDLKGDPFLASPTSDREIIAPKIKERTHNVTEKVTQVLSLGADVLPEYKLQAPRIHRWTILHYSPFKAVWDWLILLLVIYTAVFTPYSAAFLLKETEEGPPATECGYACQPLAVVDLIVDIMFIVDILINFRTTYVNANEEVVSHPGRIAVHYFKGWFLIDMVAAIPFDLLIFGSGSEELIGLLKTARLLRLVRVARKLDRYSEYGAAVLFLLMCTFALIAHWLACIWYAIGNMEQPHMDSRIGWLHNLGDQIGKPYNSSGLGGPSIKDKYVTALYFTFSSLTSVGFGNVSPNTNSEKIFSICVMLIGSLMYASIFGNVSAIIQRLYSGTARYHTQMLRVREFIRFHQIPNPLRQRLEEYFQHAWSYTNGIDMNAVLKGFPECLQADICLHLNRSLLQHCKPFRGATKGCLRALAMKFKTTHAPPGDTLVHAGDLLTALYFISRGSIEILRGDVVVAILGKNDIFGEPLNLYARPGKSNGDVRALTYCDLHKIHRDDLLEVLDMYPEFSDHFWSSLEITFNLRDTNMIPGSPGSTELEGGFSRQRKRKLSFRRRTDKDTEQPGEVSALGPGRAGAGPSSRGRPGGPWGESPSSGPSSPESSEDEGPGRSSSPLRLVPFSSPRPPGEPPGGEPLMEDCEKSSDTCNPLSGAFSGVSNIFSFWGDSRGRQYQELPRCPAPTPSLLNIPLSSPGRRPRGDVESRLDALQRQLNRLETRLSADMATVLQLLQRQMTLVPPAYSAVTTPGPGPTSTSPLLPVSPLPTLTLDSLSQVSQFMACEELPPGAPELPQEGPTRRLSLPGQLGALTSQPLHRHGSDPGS

CYP3A4/5 [29] = target: T1, CYP3A4/5 (Homo sapiens, UniProt P08684+P20815); assay: Inhibition of CYP3A4/5-mediated testosterone 6beta-hydroxylation in human liver microsomes by LCMS analysis; type: ADME, Microsome; settings: probe testosterone (6beta-hydroxylation)
CYP3A4/5 [30] = target: T1, CYP3A4/5; assay: Inhibition of CYP3A4/5-mediated midazolam 1'-hydroxylation in human liver microsomes by LCMS analysis; type: ADME, Microsome; settings: probe midazolam (1'-hydroxylation)
Cytochrome P450 2D6 = Cytochrome P450 2D6 (Homo sapiens, UniProt P10635); assay: Inhibition of CYP2D6-mediated dextromethorphan O-demethylation in human liver microsomes by LCMS analysis; type: ADME, Microsome
Sequence of Cytochrome P450 2D6 (P10635 whole entry): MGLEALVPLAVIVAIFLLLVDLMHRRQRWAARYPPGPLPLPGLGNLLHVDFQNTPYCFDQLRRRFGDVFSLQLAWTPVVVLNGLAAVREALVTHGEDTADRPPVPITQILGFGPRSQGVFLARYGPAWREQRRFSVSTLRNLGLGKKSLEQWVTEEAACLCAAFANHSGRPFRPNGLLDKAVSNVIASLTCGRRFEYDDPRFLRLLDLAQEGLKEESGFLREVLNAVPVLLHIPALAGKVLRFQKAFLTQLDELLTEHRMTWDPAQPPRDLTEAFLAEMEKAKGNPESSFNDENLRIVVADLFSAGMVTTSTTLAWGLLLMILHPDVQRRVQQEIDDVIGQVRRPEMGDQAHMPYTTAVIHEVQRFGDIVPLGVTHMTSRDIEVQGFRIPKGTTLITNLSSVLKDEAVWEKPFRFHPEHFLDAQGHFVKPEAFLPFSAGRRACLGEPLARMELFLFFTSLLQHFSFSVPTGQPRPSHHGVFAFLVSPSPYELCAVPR

Cytochrome P450 2C19 = Cytochrome P450 2C19 (Homo sapiens, UniProt P33261); assay: Inhibition of CYP2C19-mediated (S)-mephenytoin 4'-hydroxylation in human liver microsomes by LCMS analysis; type: ADME, Microsome
Sequence of Cytochrome P450 2C19 (P33261 whole entry): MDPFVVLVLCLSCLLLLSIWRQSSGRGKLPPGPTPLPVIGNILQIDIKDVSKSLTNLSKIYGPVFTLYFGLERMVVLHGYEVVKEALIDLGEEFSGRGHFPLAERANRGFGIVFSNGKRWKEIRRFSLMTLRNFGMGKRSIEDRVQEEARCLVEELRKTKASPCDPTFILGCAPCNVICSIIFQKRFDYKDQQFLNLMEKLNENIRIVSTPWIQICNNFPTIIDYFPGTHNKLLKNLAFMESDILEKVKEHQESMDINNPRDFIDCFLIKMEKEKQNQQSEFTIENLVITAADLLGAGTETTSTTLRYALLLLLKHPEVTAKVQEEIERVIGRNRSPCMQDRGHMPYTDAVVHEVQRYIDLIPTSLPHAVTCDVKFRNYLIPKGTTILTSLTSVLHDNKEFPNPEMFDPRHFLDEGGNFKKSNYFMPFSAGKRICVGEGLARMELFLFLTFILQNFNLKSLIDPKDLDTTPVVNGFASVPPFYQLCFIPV

Cytochrome P450 2C9 = Cytochrome P450 2C9 (Homo sapiens, UniProt P11712); assay: Inhibition of CYP2C9-mediated Tolbutamide methlyhydroxylation in human liver microsomes by LCMS analysis; type: ADME, Microsome
Sequence of Cytochrome P450 2C9 (P11712 whole entry): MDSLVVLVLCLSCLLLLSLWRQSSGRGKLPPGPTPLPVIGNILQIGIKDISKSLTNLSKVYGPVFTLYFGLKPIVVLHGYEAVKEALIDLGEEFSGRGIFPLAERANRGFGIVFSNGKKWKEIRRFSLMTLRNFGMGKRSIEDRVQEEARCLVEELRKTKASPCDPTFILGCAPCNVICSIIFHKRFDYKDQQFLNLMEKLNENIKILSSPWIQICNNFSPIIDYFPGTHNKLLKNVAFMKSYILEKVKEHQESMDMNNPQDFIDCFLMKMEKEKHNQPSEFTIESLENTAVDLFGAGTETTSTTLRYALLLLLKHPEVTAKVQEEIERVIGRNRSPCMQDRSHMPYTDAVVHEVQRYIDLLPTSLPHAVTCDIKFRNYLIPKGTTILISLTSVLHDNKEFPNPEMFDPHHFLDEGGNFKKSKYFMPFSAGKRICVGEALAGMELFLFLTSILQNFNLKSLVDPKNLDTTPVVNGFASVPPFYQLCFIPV

Cytochrome P450 1A2 = target: T2, Cytochrome P450 1A2 (Homo sapiens, UniProt P05177); assay: Inhibition of CYP1A2-mediated phencetin o-de-ethylation in human liver microsomes by LCMS analysis; type: ADME, Microsome
T2 sequence (P05177 whole entry): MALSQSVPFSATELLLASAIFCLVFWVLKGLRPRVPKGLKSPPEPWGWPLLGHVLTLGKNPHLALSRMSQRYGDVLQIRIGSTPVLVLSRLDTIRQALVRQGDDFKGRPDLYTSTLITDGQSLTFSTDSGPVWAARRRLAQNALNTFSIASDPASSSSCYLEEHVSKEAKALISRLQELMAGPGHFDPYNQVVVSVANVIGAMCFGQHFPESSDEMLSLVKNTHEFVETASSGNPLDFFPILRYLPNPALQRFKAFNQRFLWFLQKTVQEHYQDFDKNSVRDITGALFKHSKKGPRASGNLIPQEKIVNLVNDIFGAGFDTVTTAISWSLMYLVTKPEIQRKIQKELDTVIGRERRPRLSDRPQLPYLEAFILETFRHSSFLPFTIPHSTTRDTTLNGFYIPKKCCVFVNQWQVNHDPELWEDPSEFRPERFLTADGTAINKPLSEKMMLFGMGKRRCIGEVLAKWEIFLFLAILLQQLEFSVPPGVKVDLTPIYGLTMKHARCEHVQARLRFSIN

[31] = Lipophilicity, log D of the compound by gradient HPLC at pH 3.0; type: physicochemical; settings: buffer
[32] = Lipophilicity, log D of the compound by gradient HPLC at pH 7.4; type: physicochemical; settings: buffer
[33] = Equilibrium solubility of the compound by nephelometry at pH 2.0; type: physicochemical; settings: buffer
[34] = Equilibrium solubility of the compound by nephelometry at pH 6.5; type: physicochemical; settings: buffer
Plasmodium falciparum [35] = assay: microbe, parasite or virus in culture; settings: K1
Plasmodium falciparum [36] = assay: microbe, parasite or virus in culture; settings: NF54

CC(C)(C)c1cc(C(=O)Nc2nc(CN)cs2)n(Cc2ccccc2)n1
MSD (Plasmodium berghei [1]): 6 days | MSD (Plasmodium berghei [2]): 3 days | MSD (Plasmodium berghei [3]): 9 days | half-life [4]: 3.7 h | clearance [5]: 42.6 mL/min/kg | clearance [6]: 39.1 mL/min/kg | blood plasma ratio [7]: 1.1 | Vd [8]: 10.1 L/kg | AUC(0-inf) [9]: 4.82 µM·h | half-life [10]: 3.1 h | Cmax [11]: 1600 nM | Tmax [12]: 3.25 h | AUC(0-inf) [13]: 11.8 µM·h | bioavailability [14]: 50.4% | fraction unbound at 200 ng/mL [15]: 0.06 | fraction unbound at 200 ng/mL [16]: 0.029 | fraction unbound at 200 ng/mL [17]: 0.021 | Stability (Liver microsomes [18]): Stable | Stability (Liver microsomes [19]): Stable | Stability (Liver): Stable | ED50 (Plasmodium berghei [20]): 37 mg/kg | ED90 (Plasmodium berghei [20]): 86 mg/kg | MSD (Plasmodium berghei [21]): 6 days | MSD (Plasmodium berghei [22]): 8 days | Activity (Plasmodium berghei [23]): 99.5% | Activity (Plasmodium berghei [24]): <40% | Activity (Plasmodium berghei [25]): <40% | Activity (Plasmodium berghei [26]): 94% | IC50 (L6): 4.9 µM | Activity (Plasmodium berghei [27]): 99.4% | IC50 [28]: 3.7 µM | IC50 (CYP3A4/5 [29]): > 30 µM | IC50 (CYP3A4/5 [30]): > 30 µM | IC50 (Cytochrome P450 2D6): 0.4 µM | IC50 (Cytochrome P450 2C19): 15 µM | IC50 (Cytochrome P450 2C9): 10 µM | IC50 (Cytochrome P450 1A2): 1.5 µM | chromatographic logD [31]: 2.4 | chromatographic logD [32]: 3.5 | solubility [33]: 4930 µg/mL (≈ 13.3 mM) | solubility [34]: 142 µg/mL (≈ 0.385 mM) | IC50 (Plasmodium falciparum [35]): 0.08 µM | IC50 (Plasmodium falciparum [36]): 0.07 µM
